Measurements as given in PubChem BioAssay (NCI).
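Five compound concentrations were applied to cells in 96-well plates for 48 hours; endpoints were derived by simple linear interpolation of the resulting dose-response curve. Definition used: TGI = concentration required for complete inhibition of growth.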

Assays:
Test in all cases: NCI tumour cell line growth inhibition, 48 h
[1] = system: MDA-MB-435
[2] = system: SF-539 CNS
[3] = system: NCI/ADR-RES ovarian
[4] = system: U251 CNS
[5] = system: A549 NSCLC
[6] = system: NCI-H23 lung
[7] = system: NCI-H226 lung
[8] = system: TK-10 renal
[9] = system: A498 renal
[10] = system: M14 melanoma
[11] = system: UACC-257 melanoma
[12] = system: OVCAR-3 ovarian
[13] = system: NCI-H522 lung
[14] = system: OVCAR-4 ovarian
[15] = system: EKVX NSCLC
[16] = system: HCT-15 colon
[17] = system: SR leukemia
[18] = system: SNB-19 CNS
[19] = system: CAKI-1 renal
[20] = system: HS 578T breast
[21] = system: KM12 colon
[22] = system: MDA-N
[23] = system: SNB-75 CNS
[24] = system: CCRF-CEM leukemia
[25] = system: PC-3 prostate
[26] = system: MDA-MB-231 breast
[27] = system: HOP-92 NSCLC
[28] = system: UACC-62 melanoma
[29] = system: RPMI-8226 leukemia
[30] = system: MALME-3M melanoma
[31] = system: UO-31 renal
[32] = system: HOP-62 NSCLC
[33] = system: COLO 205 colon
[34] = system: HT29 colon
[35] = system: SN12C renal
[36] = system: SK-MEL-2 melanoma
[37] = system: SK-MEL-5 melanoma
[38] = system: ACHN renal
[39] = system: NCI-H460 lung
[40] = system: OVCAR-8 ovarian
[41] = system: MOLT-4 leukemia
[42] = system: IGROV1 ovarian
[43] = system: SW-620 colon
[44] = system: BT-549 breast
[45] = system: OVCAR-5 ovarian
[46] = system: MCF7 breast
[47] = system: K-562 leukemia
[48] = system: RXF 393 renal
[49] = system: HL-60(TB) leukemia
[50] = system: HCC-2998 colon
[51] = system: 786-0 renal
[52] = system: SK-OV-3 ovarian
[53] = system: DU-145 prostate
[54] = system: SK-MEL-28 melanoma
[55] = system: HCT-116 colon
[56] = system: SF-268 CNS
[57] = system: SF-295 CNS
[58] = system: LOX IMVI melanoma

Question: `C[n+]1c(-c2ccc(/C=N\NC(=O)c3ccc(C(=O)N/N=C/c4ccc(-c5cn6ccsc6[n+]5C)cc4)cc3)cc2)cn2ccsc21` was tested. Which TGI [1] did it give?
Answer: 37.7 µM

Question: And the TGI [2]?
Answer: 56.1 µM

Question: And the TGI [3]?
Answer: 41.1 µM

Question: And the TGI [4]?
Answer: 48.9 µM

Question: And the TGI [5]?
Answer: 57.8 µM

Question: What about the TGI [6] of the same molecule?
Answer: 50.9 µM

Question: What about the TGI [7] of the same molecule?
Answer: 44.1 µM

Question: What about the TGI [8] of the same molecule?
Answer: 40.3 µM

Question: What about the TGI [9] of the same molecule?
Answer: 33 µM

Question: What about the TGI [10] of the same molecule?
Answer: 44.9 µM

Question: What about the TGI [11] of the same molecule?
Answer: 54.9 µM

Question: And the TGI [12]?
Answer: 28.5 µM

Question: What about the TGI [13] of the same molecule?
Answer: 60.6 µM

Question: What about the TGI [14] of the same molecule?
Answer: 57.8 µM

Question: And the TGI [15]?
Answer: 34.3 µM

Question: And the TGI [16]?
Answer: 37.8 µM

Question: What about the TGI [17] of the same molecule?
Answer: 85.6 µM

Question: And the TGI [18]?
Answer: 51.9 µM

Question: And the TGI [19]?
Answer: 41 µM

Question: And the TGI [20]?
Answer: 54.7 µM

Question: What about the TGI [21] of the same molecule?
Answer: 58.2 µM

Question: What about the TGI [22] of the same molecule?
Answer: 78.3 µM

Question: What about the TGI [23] of the same molecule?
Answer: 46.7 µM

Question: What about the TGI [24] of the same molecule?
Answer: > 100 µM

Question: And the TGI [25]?
Answer: 41.1 µM

Question: And the TGI [26]?
Answer: 42.1 µM

Question: And the TGI [27]?
Answer: 36.4 µM

Question: What about the TGI [28] of the same molecule?
Answer: 47.1 µM

Question: What about the TGI [29] of the same molecule?
Answer: 55 µM

Question: And the TGI [30]?
Answer: 47.7 µM

Question: And the TGI [31]?
Answer: 32.3 µM

Question: And the TGI [32]?
Answer: 35.1 µM

Question: And the TGI [33]?
Answer: 54.3 µM

Question: What about the TGI [34] of the same molecule?
Answer: 36 µM

Question: What about the TGI [35] of the same molecule?
Answer: 43.8 µM

Question: And the TGI [36]?
Answer: 75.6 µM

Question: And the TGI [37]?
Answer: 34 µM

Question: And the TGI [38]?
Answer: 33.3 µM

Question: And the TGI [39]?
Answer: 42.1 µM

Question: What about the TGI [40] of the same molecule?
Answer: 40.8 µM

Question: What about the TGI [41] of the same molecule?
Answer: 54.1 µM

Question: What about the TGI [42] of the same molecule?
Answer: 40.7 µM

Question: What about the TGI [43] of the same molecule?
Answer: 40 µM

Question: And the TGI [44]?
Answer: 42.7 µM

Question: And the TGI [45]?
Answer: 36.3 µM

Question: What about the TGI [46] of the same molecule?
Answer: 47.9 µM

Question: What about the TGI [47] of the same molecule?
Answer: > 100 µM

Question: What about the TGI [48] of the same molecule?
Answer: 53.5 µM

Question: What about the TGI [49] of the same molecule?
Answer: 43.8 µM

Question: And the TGI [50]?
Answer: 58.4 µM

Question: What about the TGI [51] of the same molecule?
Answer: 36.8 µM

Question: And the TGI [52]?
Answer: 74.6 µM

Question: What about the TGI [53] of the same molecule?
Answer: 35 µM

Question: For `Nc1cnc2c(c1)c(=O)nc1n2CCS1`, which TGI [1] is on record?
Answer: > 100 µM

Question: What about the TGI [2] of the same molecule?
Answer: > 100 µM

Question: And the TGI [3]?
Answer: > 100 µM

Question: And the TGI [4]?
Answer: > 100 µM

Question: What about the TGI [5] of the same molecule?
Answer: > 100 µM

Question: And the TGI [6]?
Answer: > 100 µM

Question: And the TGI [54]?
Answer: > 100 µM

Question: What about the TGI [7] of the same molecule?
Answer: > 100 µM

Question: What about the TGI [8] of the same molecule?
Answer: > 100 µM

Question: And the TGI [9]?
Answer: > 100 µM

Question: And the TGI [55]?
Answer: > 100 µM

Question: What about the TGI [11] of the same molecule?
Answer: > 100 µM

Question: What about the TGI [12] of the same molecule?
Answer: > 100 µM

Question: And the TGI [14]?
Answer: > 100 µM

Question: And the TGI [15]?
Answer: > 100 µM

Question: And the TGI [16]?
Answer: > 100 µM

Question: And the TGI [56]?
Answer: > 100 µM

Question: What about the TGI [18] of the same molecule?
Answer: > 100 µM

Question: And the TGI [19]?
Answer: > 100 µM

Question: And the TGI [21]?
Answer: > 100 µM

Question: What about the TGI [22] of the same molecule?
Answer: > 100 µM

Question: What about the TGI [23] of the same molecule?
Answer: > 100 µM

Question: What about the TGI [24] of the same molecule?
Answer: > 100 µM

Question: And the TGI [25]?
Answer: > 100 µM

Question: What about the TGI [26] of the same molecule?
Answer: > 100 µM

Question: What about the TGI [27] of the same molecule?
Answer: > 100 µM

Question: And the TGI [28]?
Answer: > 100 µM

Question: And the TGI [29]?
Answer: > 100 µM

Question: What about the TGI [30] of the same molecule?
Answer: > 100 µM

Question: And the TGI [31]?
Answer: > 100 µM

Question: What about the TGI [32] of the same molecule?
Answer: > 100 µM

Question: What about the TGI [33] of the same molecule?
Answer: > 100 µM

Question: What about the TGI [34] of the same molecule?
Answer: > 100 µM

Question: What about the TGI [35] of the same molecule?
Answer: > 100 µM

Question: And the TGI [36]?
Answer: > 100 µM

Question: What about the TGI [37] of the same molecule?
Answer: > 100 µM

Question: What about the TGI [38] of the same molecule?
Answer: > 100 µM

Question: And the TGI [39]?
Answer: > 100 µM

Question: And the TGI [57]?
Answer: > 100 µM

Question: What about the TGI [40] of the same molecule?
Answer: > 100 µM

Question: What about the TGI [41] of the same molecule?
Answer: > 100 µM

Question: And the TGI [43]?
Answer: > 100 µM

Question: And the TGI [44]?
Answer: > 100 µM

Question: What about the TGI [45] of the same molecule?
Answer: > 100 µM

Question: What about the TGI [46] of the same molecule?
Answer: > 100 µM

Question: And the TGI [47]?
Answer: > 100 µM

Question: And the TGI [48]?
Answer: > 100 µM

Question: And the TGI [58]?
Answer: > 100 µM

Question: What about the TGI [49] of the same molecule?
Answer: > 100 µM

Question: What about the TGI [50] of the same molecule?
Answer: > 100 µM

Question: What about the TGI [51] of the same molecule?
Answer: > 100 µM

Question: What about the TGI [52] of the same molecule?
Answer: > 100 µM

Question: And the TGI [53]?
Answer: > 100 µM
